Drawing on PubChem BioAssay (NCI), this text covers GI50 and TGI for six compounds.

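Five concentrations, 48 hours, 96-well plates. Abbreviation: GI50, concentration required for 50% inhibition of growth. TGI: concentration producing complete growth inhibition.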

Some test systems named below: SK-MEL-5 melanoma; PC-3 prostate; HCT-116 colon; SK-MEL-2 melanoma; IGROV1 ovarian; RPMI-8226 leukemia; NCI-H226 lung; SW-620 colon; COLO 205 colon; DU-145 prostate.
Assay in all cases: NCI-60 cell line screen, 48 h

On to `CC(C)CCOc1ccc(-c2n[nH]c(C(F)(F)F)c2-c2cncc(C#N)c2)c(O)c1`, for which the GI50 with SK-MEL-5 melanoma was 0.943 µM; in the assay on PC-3 prostate, 2.12 µM; in the assay on HCT-116 colon, 2.61 µM; in the assay with SK-MEL-2 melanoma, 1.75 µM; in the assay on IGROV1 ovarian, 3.35 µM; in the assay with RPMI-8226 leukemia, 0.697 µM. Moreover, the GI50 was 2.57 µM with NCI-H226 lung, 3.44 µM with SW-620 colon, 1.68 µM with COLO 205 colon and 4.18 µM in the assay on DU-145 prostate. Also, the TGI in the assay with SK-MEL-5 melanoma was 2.57 µM; in the assay with PC-3 prostate, greater than 100 µM; in the assay with HCT-116 colon, 10.5 µM; in the assay with SK-MEL-2 melanoma, 5.3 µM; in the assay with IGROV1 ovarian it was greater than 100 µM; in the assay with RPMI-8226 leukemia it was 4.65 µM. The TGI in the assay on NCI-H226 lung is 9.98 µM; in the assay with SW-620 colon it was greater than 100 µM; with COLO 205 colon, 3.14 µM; with DU-145 prostate, 46.3 µM.

For `CC(=O)c1c(C(F)(F)F)n([O-])c2ccc(Cl)cc2[n+]1=O`, the GI50 was 0.822 µM in the assay on SK-MEL-5 melanoma; 0.662 µM with HCT-116 colon; 3.18 µM with SK-MEL-2 melanoma; 0.322 µM with IGROV1 ovarian; less than 0.0422 µM with RPMI-8226 leukemia; 1.4 µM with NCI-H226 lung. The GI50 with SW-620 colon is 1.17 µM; in the assay with COLO 205 colon, 1.77 µM; in the assay with DU-145 prostate, 0.158 µM. In addition, the TGI worked out at 2.65 µM with SK-MEL-5 melanoma; 2.79 µM in the assay on PC-3 prostate; 12.5 µM in the assay on SK-MEL-2 melanoma; 0.171 µM with RPMI-8226 leukemia; 3.43 µM with NCI-H226 lung; 0.576 µM in the assay with DU-145 prostate.

For `CCSCC(N)C(=O)O` (stereo not given), the TGI with SK-MEL-5 melanoma, in the assay with PC-3 prostate, in the assay on HCT-116 colon, in the assay with SK-MEL-2 melanoma, in the assay with IGROV1 ovarian and in the assay on RPMI-8226 leukemia was greater than 100 µM in each case. Also, the TGI in the assay on NCI-H226 lung, in the assay with SW-620 colon, in the assay on COLO 205 colon and with DU-145 prostate was greater than 100 µM throughout.

Regarding `CC(=O)Nc1ccc(Sc2ccc([N+](=O)[O-])o2)cc1`, the GI50 in the assay with SK-MEL-5 melanoma was 3.32 µM; with PC-3 prostate, 2.23 µM; with HCT-116 colon, 0.924 µM; in the assay on SK-MEL-2 melanoma, 2.31 µM; with IGROV1 ovarian, 1.27 µM; in the assay with RPMI-8226 leukemia, 2.13 µM. In addition, the GI50 is 2.88 µM with NCI-H226 lung, 0.767 µM in the assay on SW-620 colon, 0.651 µM in the assay with COLO 205 colon and 2.26 µM in the assay with DU-145 prostate. Further, the TGI in the assay on SK-MEL-5 melanoma is 11.4 µM; in the assay with PC-3 prostate, 6.58 µM; in the assay on HCT-116 colon, 2.75 µM; in the assay with SK-MEL-2 melanoma it was 6.29 µM; in the assay on IGROV1 ovarian, 4.27 µM; in the assay on RPMI-8226 leukemia, 8.65 µM. The TGI turned out to be 8.7 µM in the assay with NCI-H226 lung, 2.22 µM in the assay on SW-620 colon, 1.82 µM in the assay on COLO 205 colon and 5.98 µM in the assay with DU-145 prostate.

For `NC(CSC(c1ccccc1)(c1ccccc1)c1ccc(Cl)cc1)C(=O)O` (stereo not given), the GI50 is 0.0612 µM in the assay on SK-MEL-5 melanoma; 0.342 µM with PC-3 prostate; 0.0476 µM in the assay with HCT-116 colon; 0.239 µM in the assay with SK-MEL-2 melanoma; 0.355 µM with IGROV1 ovarian; 0.143 µM in the assay with RPMI-8226 leukemia. The GI50 in the assay on NCI-H226 lung is 5.11 µM; in the assay on SW-620 colon, 0.19 µM; in the assay on COLO 205 colon it was 0.256 µM; in the assay with DU-145 prostate it was 0.307 µM. Further, the TGI is 14.1 µM in the assay on SK-MEL-5 melanoma; 32.6 µM in the assay on PC-3 prostate; 11.2 µM in the assay on HCT-116 colon; 5.07 µM with SK-MEL-2 melanoma; 34.1 µM in the assay with IGROV1 ovarian; 21.5 µM with RPMI-8226 leukemia. Moreover, the TGI in the assay with NCI-H226 lung was 49 µM; with SW-620 colon, greater than 78.7 µM; in the assay on COLO 205 colon it was 0.768 µM; in the assay with DU-145 prostate, 0.863 µM.

Consider `COc1ccccc1-n1c(-c2cc(O)ccc2C)cn2c3c(=O)[nH]c(=O)n(C)c3nc12`, for which the GI50 with SK-MEL-5 melanoma was 53.2 µM; in the assay with PC-3 prostate, greater than 100 µM; in the assay on HCT-116 colon it was 21.1 µM; in the assay with SK-MEL-2 melanoma it was greater than 100 µM; with IGROV1 ovarian, 3.52 µM; in the assay on RPMI-8226 leukemia it was greater than 100 µM. Besides, the GI50 is 78.7 µM in the assay with NCI-H226 lung, greater than 100 µM in the assay on SW-620 colon, 18.2 µM in the assay on COLO 205 colon and 7.04 µM in the assay with DU-145 prostate. Further, the TGI with SK-MEL-5 melanoma was greater than 100 µM; in the assay on PC-3 prostate, greater than 100 µM; in the assay on HCT-116 colon, greater than 100 µM; in the assay with SK-MEL-2 melanoma, greater than 100 µM; in the assay with IGROV1 ovarian, 13.9 µM; in the assay with RPMI-8226 leukemia it was greater than 100 µM. For the same compound, the TGI in the assay with NCI-H226 lung is greater than 100 µM; in the assay on SW-620 colon, greater than 100 µM; with COLO 205 colon, 48 µM; in the assay with DU-145 prostate, greater than 100 µM.
